Paper PMC5146859, “Phase 1/2 study of pacritinib, a next generation JAK2/FLT3 inhibitor, in myelofibrosis or other myeloid malignancies” (Journal of Hematology & Oncology, 2016)
Marks after values point to notes of the source that are not given here.

Columns and labels:
[1] = tested on: patients with advanced myeloid malignancies; test: Phase 1 dose escalation: dose-limiting toxicities and MTD; assay type: in vivo
Method: Phase 1 was a 3 + 3 dose-escalation study. Three to six patients were enrolled at each dose level, depending upon observed dose-limiting toxicities (DLTs) in the cohort. Each patient participated in only one cohort. Oral pacritinib was administered to the first cohort at 100 mg once daily (QD) for 25 consecutive days in a 28-day cycle in cycle 1, with 3 days of rest for pharmacokinetic (PK) sampling, followed by continuous 28-day dosing for the remaining cycles. Subsequent cohorts received escalating pacritinib dose levels of 150, 200, 300, 400, 500, and 600 mg QD. All patients at each dose level were observed through the end of the first cycle before the next dose level could begin treatment. […]
The primary objective of phase 1 was to establish the MTD of pacritinib in patients with advanced myeloid malignancies, defined as the highest dose level at which no more than one out of six patients in the cohort experienced a DLT during cycle 1 (25 days) of therapy. […] Clinical benefit rate was assessed as an exploratory endpoint, defined as the proportion of patients who experienced a complete response, partial response, clinical improvement, or stable disease (SD) during the study.

patients with MF = test: Phase 2 hematologic parameters and transfusions; assay type: in vivo, human
Method: At screening/baseline, patients underwent a medical history, physical examination, vital sign assessment, ECOG PS assessment, electrocardiogram, and assessment of hematologic parameters and blood chemistry. Hematology/blood chemistry, physical examinations, and vital sign assessments were performed throughout treatment. Toxicity was assessed using the National Cancer Institute Common Terminology Criteria for Adverse Events (NCIC-CTCAE), version 3.0, with relationship to treatment assigned by the investigator and were recorded from the first dose of pacritinib until 30 days after the last dose. Bone marrow biopsy and/or aspirate samples were drawn at baseline, on day 1 of cycle 4 and cycle 10, as clinically indicated, and at the termination visit. Disease response and progression were determined using the relevant International Working Group (IWG) criteria.

[2] = phase 2, during the study, n = 31

With `C1=C/COCc2cc(ccc2OCCN2CCCC2)Nc2nccc(n2)-c2cccc(c2)COC/1` [pacritinib, 11-(2-pyrrolidin-1-yl-ethoxy)-14,19-dioxa-5,7,26-triaza-tetracyclo[19.3.1.1(2,6). 1(8,12)]heptacosa-1(25),2(26),3,5,8,10,12(27),16,21,23-decaene] the “Recommended phase 2 dose” value ([1]; human, in vivo) was 400 mg QD, the “Maximum tolerated dose (MTD)” value ([1]; phase 1, oral) was 500 mg QD and the “RBC transfusions, median” value (patients with MF; phase 2, 16 transfused patients) was 11 units. The “Hematocrit, Median % change from baseline” value (shortened to “Hematocrit, Median % change”) (patients with MF; phase 2, Termination) was 0.48%, the “Hemoglobin, Median % change from baseline” value (shortened to “Hemoglobin, Median % change”) (patients with MF; phase 2, Termination) was 5.0% and the “Leukocytes, Median % change from baseline” value (shortened to “Leukocytes, Median % change”) (patients with MF; phase 2, Termination) was 15.49%. The “Lymphocytes, Median % change from baseline” value (shortened to “Lymphocytes, Median % change”) (patients with MF; phase 2, Termination) was 39.87%, the “Neutrophils, Median % change from baseline” value (“Neutrophils, Median % change” below) (patients with MF; phase 2, Termination) was -9.19% and the “Platelets, Median % change from baseline” value (patients with MF; phase 2, Termination) was -5.4%. For the same molecule, the “Red blood cells, Median % change from baseline” value (from here on “Red blood cells, Median % change”) (patients with MF; phase 2, Termination) was 0.18%, the “Hematocrit, Median % change” value (patients with MF; phase 2, Week 2) was 2.92% and the “Hemoglobin, Median % change” value (patients with MF; phase 2, Week 2) was 5.3%. For the same molecule, the “Leukocytes, Median % change” value (patients with MF; phase 2, Week 2) was -5.93%, the “Lymphocytes, Median % change” value (patients with MF; phase 2, Week 2) was 26.93% and the “Neutrophils, Median % change” value (patients with MF; phase 2, Week 2) was -16.44%. For the same molecule, the “Platelets, Median % change from baseline” value (patients with MF; phase 2, Week 2) was -1.6%, the “Red blood cells, Median % change” value (patients with MF; phase 2, Week 2) was 2.23% and the “Hematocrit, Median % change” value (patients with MF; phase 2, Week 4) was 0.00%. The “Hemoglobin, Median % change” value (patients with MF; phase 2, Week 4) was 2.2%, the “Leukocytes, Median % change” value (patients with MF; phase 2, Week 4) was -26.77% and the “Lymphocytes, Median % change” value (patients with MF; phase 2, Week 4) was -6.84%. The “Neutrophils, Median % change” value (patients with MF; phase 2, Week 4) was -26.43%, the “Platelets, Median % change from baseline” value (patients with MF; phase 2, Week 4) was -20.3% and the “Red blood cells, Median % change” value (patients with MF; phase 2, Week 4) was 1.41%. The “Hematocrit, Median % change” value (patients with MF; phase 2, Week 6) was 0.64%, the “Hemoglobin, Median % change” value (patients with MF; phase 2, Week 6) was 9.1% and the “Leukocytes, Median % change” value (patients with MF; phase 2, Week 6) was -5.58%. The “Lymphocytes, Median % change” value (patients with MF; phase 2, Week 6) was 31.7%, the “Neutrophils, Median % change” value (patients with MF; phase 2, Week 6) was -9.32% and the “Platelets, Median % change from baseline” value (patients with MF; phase 2, Week 6) was -3.6%. For the same molecule, the “Red blood cells, Median % change” value (patients with MF; phase 2, Week 6) was -1.65%, the “Hematocrit, Median % change” value (patients with MF; phase 2, Week 8) was 2.01% and the “Hemoglobin, Median % change” value (patients with MF; phase 2, Week 8) was 4.5%. The “Leukocytes, Median % change” value (patients with MF; phase 2, Week 8) was -5.50%, the “Lymphocytes, Median % change” value (patients with MF; phase 2, Week 8) was 12.65% and the “Neutrophils, Median % change” value (patients with MF; phase 2, Week 8) was -19.76%. The “Platelets, Median % change from baseline” value (patients with MF; phase 2, Week 8) was -4.5%, the “Red blood cells, Median % change” value (patients with MF; phase 2, Week 8) was 2.14% and the “Hematocrit, Median % change” value (patients with MF; phase 2, Week 10) was -3.57%. For the same molecule, the “Hemoglobin, Median % change” value (patients with MF; phase 2, Week 10) was 8.2%, the “Leukocytes, Median % change” value (patients with MF; phase 2, Week 10) was 7.90% and the “Lymphocytes, Median % change” value (patients with MF; phase 2, Week 10) was 52.34%. The “Platelets, Median % change from baseline” value (patients with MF; phase 2, Week 10) was -3.1%, the “Red blood cells, Median % change” value (patients with MF; phase 2, Week 10) was -1.37% and the “Neutrophils, Median % change” value (patients with MF; phase 2, Week 10, n = 19) was -1.44^b %. The “Hematocrit, Median % change” value (patients with MF; phase 2, Week 12) was -3.31%, the “Hemoglobin, Median % change” value (patients with MF; phase 2, Week 12) was -0.5% and the “Leukocytes, Median % change” value (patients with MF; phase 2, Week 12) was -21.83%. For the same molecule, the “Lymphocytes, Median % change” value (patients with MF; phase 2, Week 12) was 20.88%, the “Neutrophils, Median % change” value (patients with MF; phase 2, Week 12) was -31.39% and the “Platelets, Median % change from baseline” value (patients with MF; phase 2, Week 12) was -7.7%. The “Red blood cells, Median % change” value (patients with MF; phase 2, Week 12) was -1.81%, the “Hematocrit, Median % change” value (patients with MF; phase 2, Week 16) was 3.11% and the “Hemoglobin, Median % change” value (patients with MF; phase 2, Week 16) was 8.6%. The “Leukocytes, Median % change” value (patients with MF; phase 2, Week 16) was -15.09%, the “Lymphocytes, Median % change” value (patients with MF; phase 2, Week 16) was 22.22% and the “Neutrophils, Median % change” value (patients with MF; phase 2, Week 16) was -33.04%. The “Platelets, Median % change from baseline” value (patients with MF; phase 2, Week 16) was -20.1%, the “Red blood cells, Median % change” value (patients with MF; phase 2, Week 16) was 6.16% and the “Hematocrit, Median % change” value (patients with MF; phase 2, Week 20) was -1.30%. For the same molecule, the “Hemoglobin, Median % change” value (patients with MF; phase 2, Week 20) was 5.8%, the “Leukocytes, Median % change” value (patients with MF; phase 2, Week 20) was -25.83% and the “Lymphocytes, Median % change” value (patients with MF; phase 2, Week 20) was 37.07%. For the same molecule, the “Neutrophils, Median % change” value (patients with MF; phase 2, Week 20) was -32.93%, the “Platelets, Median % change from baseline” value (patients with MF; phase 2, Week 20) was -11.7% and the “Red blood cells, Median % change” value (patients with MF; phase 2, Week 20) was -0.30%. The “Hematocrit, Median % change” value (patients with MF; phase 2, Week 24) was 3.01%, the “Hemoglobin, Median % change” value (patients with MF; phase 2, Week 24) was 7.3% and the “Leukocytes, Median % change” value (patients with MF; phase 2, Week 24) was -30.34%. For the same molecule, the “Lymphocytes, Median % change” value (patients with MF; phase 2, Week 24) was 44.14%, the “Neutrophils, Median % change” value (patients with MF; phase 2, Week 24) was -43.24% and the “Platelets, Median % change from baseline” value (patients with MF; phase 2, Week 24) was -23.7%. The “Red blood cells, Median % change” value (patients with MF; phase 2, Week 24) was 2.46%, the “Hematocrit, Median % change” value (patients with MF; phase 2, Week 36) was -2.91% and the “Hemoglobin, Median % change” value (patients with MF; phase 2, Week 36) was -0.4%. For the same molecule, the “Leukocytes, Median % change” value (patients with MF; phase 2, Week 36) was -18.32%, the “Lymphocytes, Median % change” value (patients with MF; phase 2, Week 36) was 58.89% and the “Neutrophils, Median % change” value (patients with MF; phase 2, Week 36) was -33.96%. The “Platelets, Median % change from baseline” value (patients with MF; phase 2, Week 36) was -23.4%, the “Red blood cells, Median % change” value (patients with MF; phase 2, Week 36) was -3.15% and the “Hematocrit, Median % change” value (patients with MF; phase 2, Week 48) was -2.39%. For the same molecule, the “Hemoglobin, Median % change” value (patients with MF; phase 2, Week 48) was 10.1%, the “Leukocytes, Median % change” value (patients with MF; phase 2, Week 48) was -5.13% and the “Lymphocytes, Median % change” value (patients with MF; phase 2, Week 48) was 61.70%. For the same molecule, the “Neutrophils, Median % change” value (patients with MF; phase 2, Week 48) was -28.84%, the “Platelets, Median % change from baseline” value (patients with MF; phase 2, Week 48) was -16.3% and the “Red blood cells, Median % change” value (patients with MF; phase 2, Week 48) was -3.87%. For the same molecule, the “Hematocrit, Median % change” value (patients with MF; phase 2, Week 60) was 3.70%, the “Hemoglobin, Median % change” value (patients with MF; phase 2, Week 60) was 4.7% and the “Leukocytes, Median % change” value (patients with MF; phase 2, Week 60) was -28.21%. The “Lymphocytes, Median % change” value (patients with MF; phase 2, Week 60) was 40.43%, the “Neutrophils, Median % change” value (patients with MF; phase 2, Week 60) was -40.17% and the “Platelets, Median % change from baseline” value (patients with MF; phase 2, Week 60) was -31.3%. For the same molecule, the “Red blood cells, Median % change” value (patients with MF; phase 2, Week 60) was 1.48%, the “Patients who received RBC transfusions” value (patients with MF; [2]) was 51.6% and the “Patients who received platelet transfusions” value (patients with MF; [2]) was 9.7%. The “Platelet transfusions, median” value (patients with MF; phase 2, three transfused patients) was 3 units, the “Median neutrophil count, span over visits” value (patients with MF; phase 2, through week 60) was 3.83 to 6.00 × 10^9/L and the “Median platelet count, span over visits” value (patients with MF; phase 2, through week 60) was 89 to 155 × 10^9/L. The “Patients with hemoglobin levels <8 g/L” value (patients with MF; phase 2, week 24 (1/20)) was 5.0%, the “Patients with leukocyte counts >25 × 10^9/L” value (patients with MF; phase 2, week 24 (2/20)) was 10.0% and the “Patients with platelet counts <50 × 10^9/L” value (patients with MF; phase 2, week 24 (2/20)) was 10.0%. For the same molecule, the “Patients with hemoglobin levels <10 g/L” value (patients with MF; phase 2, week 24 (10/20)) was 50.0% and the “Patients with platelet counts <100 × 10^9/L” value (patients with MF; phase 2, week 24 (10/20)) was 50.0%.
